How the values were obtained:
DU145 = test: MTS cytotoxicity, DU145; format: cell-based; conditions: Homo sapiens, DU-145
Experimental: (§1) Human cancer cell lines were cultured in basic medium (10% fetal bovine serum (FBS)+1% double antibody solution) (Biological Industries) at 37°C in a 5% CO2 incubator. Effects of CTXs on cell proliferation and viability were measured by an MTS (Promega Corporation) assay. Absorbance values at 490 nm were measured using a microplate reader (Thermo Scientific, Varioskan Flash) ([22]).

A549 = test: MTS cytotoxicity, A549; format: cell-based; conditions: Homo sapiens
Experimental: as §1

3T3 = test: MTS cytotoxicity, 3T3 (non-tumor); format: cell-based; conditions: Mus musculus, NIH3T3, 3T3 non-tumor cell line
H520 = test: MTS cytotoxicity, H520; format: cell-based; conditions: Homo sapiens, NCI-H520
Experimental: as §1

SK-OV-3 = test: MTS cytotoxicity, SK-OV-3; format: cell-based; conditions: Homo sapiens; SK-OV-3, MTS
Experimental: as §1

[1] = Lipid-aqueous (octanol/water) partition coefficient; format: physicochemical; conditions: room temperature
Experimental: CTXs were dissolved in octanol, and an equal volume of water was added, followed by shaken at 100 rpm for 24 h at room temperature. The upper octanol phase and lower water phase were separated by centrifugation. The supernatant was analyzed by HPLC (Bruker SolanX 70 FT-MS; Agilent 6540TOF) ([21]).

H358 = test: MTS cytotoxicity, H358; format: cell-based; conditions: Homo sapiens, NCI-H358
Experimental: as §1

Bel-7402 = test: MTS cytotoxicity, Bel-7402; format: cell-based; conditions: Homo sapiens; Bel-7402, MTS
Experimental: as §1

HCT 116 = test: MTS cytotoxicity, HCT 116; format: cell-based; conditions: Homo sapiens; HCT 116, MTS
Experimental: as §1

H460 = test: MTS cytotoxicity, H460; format: cell-based; conditions: Homo sapiens, NCI-H460
Experimental: as §1

L-02 = test: MTS cytotoxicity, L-02 (non-tumor); format: cell-based; conditions: Homo sapiens, L02, L-02 non-tumor cell line
Experimental: as §1

[2] = Systemic toxicity in H22 tumor-bearing mice (body weight, blood count); format: in vivo, KM mice; conditions: H22 mice, throughout treatment, across all dose groups (9.6 and 19.1 μmol/kg)
Experimental: H22 hepatoma model: Female KM mice were subcutaneously implanted with H22 cells (2×10^6 cells/mouse) and assigned to six groups: (a) Vehicle control; (b) CTX (9.6 μmol/kg in 5% glucose with 2.5% ethanol/2.5% Tween 80); (c) CTX-TTHA (9.6 μmol/kg in saline); (d) CTX-DTPA (9.6 μmol/kg in saline); (e) CTX-TTHA (19.1 μmol/kg in saline); (f) CTX-DTPA (19.1 μmol/kg in saline).
Treatments were administered every other day for four doses (three doses for CTX group due to weight loss >15%). Peripheral blood samples were collected for complete blood count analysis using an automated hematology analyzer.

MCF-7 = test: MTS cytotoxicity, MCF-7; format: cell-based; conditions: Homo sapiens, MCF7; MCF-7, MTS
Experimental: as §1

[3] = system: DU145 prostate cancer model; test: DU145 prostate cancer xenograft, tumor volume; format: in vivo, BALB/c nude mice; conditions: 3 μmol/kg tail vein, three times at 3-day intervals, control 500 ± 45 mm³
Experimental: (§2) All animal experiments were conducted in accordance with protocols approved by the Institutional Animal Care and Use Committee of Peking Union Medical College. Male BALB/c nude mice (6–8 weeks old) and female KM mice (6–8 weeks old) were purchased from Charles River Laboratories (Beijing, China) and maintained under specific pathogen-free conditions.
DU145 Prostate cancer model: DU145 cells (3×10^6 cells/mouse) were subcutaneously inoculated into the right flank of BALB/c nude mic. When tumors reached approximately 100 mm³, mice were randomly divided into four treatment groups (n=6/group): (a) Vehicle control; (b) CTX (3 μmol/kg); (c) CTX-TTHA (3 μmol/kg); (d) CTX-DTPA (3 μmol/kg). Treatments were administered via tail vein injection three times at 3-day intervals. Major organs were collected for histopathological examination after the final administration.

Hemolysis test = format: cell-based, SD rats; conditions: SD, rat, rat red blood cells, 2% (v/v) suspension, 37 °C, 1.5 h
Experimental: (§3) The hemolytic potential of CTX formulations was evaluated using rat red blood cells (RBCs). Briefly, whole blood was collected from the abdominal aorta of anesthetized SD rats into ACD anticoagulant (blood:ACD = 1:4, v/v). The blood was diluted with normal saline (4:5, v/v) and centrifuged at 450 g for 10 min. The RBC pellet was washed three times with normal saline until the supernatant was clear. The washed RBCs were then resuspended in normal saline to prepare a 2% (v/v) suspension.
(§4) For the assay, 500 μL of the 2% RBC suspension was mixed with an equal volume of serially diluted drugs or controls in 1.5 mL tubes. The controls included: Negative control (0% hemolysis): normal saline. Positive control (100% hemolysis): distilled water. Solvent control: the vehicle for unmodified CTX (2.5% Tween 80 + 2.5% anhydrous ethanol + 95% normal saline). The mixtures were incubated at 37 °C for 1.5 h and then centrifuged at 450 g for 5 min. Subsequently, 150 μL of the supernatant from each tube was transferred to a 96-well plate, and the absorbance at 545 nm (OD545) was measured using a microplate reader. The percentage of hemolysis was calculated using the following formula: Hemolysis (%) = [(ODsample - ODnegative control)/(ODpositive control - ODnegative control)] × 100.

[4] = system: rat red blood cells (RBCs); test: Hemolysis test; format: cell-based, SD rats; conditions: vs unmodified CTX
Experimental: as §3, §4

DU145 cells = test: Cell cycle arrest (PI, flow cytometry); format: cell-based, human; conditions: 24 h
Experimental: Cells were incubated with drugs for 24 h. Fixed cells were incubated with RNase A and stained with propidium iodide (PI). DNA content was determined in a flow cytometer (BD FACS CaliburTM Flow Cytometer, USA) ([23]).

PC-3 = test: MTS cytotoxicity, PC-3; format: cell-based; conditions: Homo sapiens; PC-3, MTS
Experimental: as §1

LN229 = test: MTS cytotoxicity, LN229; format: cell-based; conditions: Homo sapiens, LN-229
Experimental: as §1

Fadu = test: MTS cytotoxicity, Fadu; format: cell-based; conditions: Homo sapiens
Experimental: as §1

MCF-7 xenografts = test: MCF-7 breast cancer xenograft, tumor volume; format: in vivo, BALB/c nude mice; conditions: MCF-7 xenograft, 9.6 μmol/kg
Experimental: as §2
MCF-7 Breast Cancer Model: Female BALB/c nude mice bearing MCF-7 xenografts (2×10^6 cells/mouse) were randomized into treatment groups as described above, with an adjusted dose of 9.6 μmol/kg for all CTX formulations.

HT-29 = test: MTS cytotoxicity, HT-29; format: cell-based; conditions: Homo sapiens; HT-29, MTS
Experimental: as §1

Tissue distribution = conditions: CTX metabolite after CTX-DTPA 6 μmol/kg iv, SD rats
Experimental: (§5) Male and female SD rats (200–220 g) received intravenous injections of CTX or CTX-DTPA (6 μmol/kg). CTX was dissolved in 2.5% Tween 80/2.5% EtOH/saline, while CTX-DTPA used saline alone. Blood samples were collected at 5 min to 24 h post-dose. Tissues (heart, liver, spleen, lung, kidney, thymus) and excreta were collected at 15 min, 2 h, 4 h, and 12 h. Plasma and tissue samples were processed by liquid-liquid extraction with n-butanol and analyzed via LC-MS/MS (Agilent Poroshell 120 EC-C18 column; 0.05% formic acid/acetonitrile gradient). Pharmacokinetic parameters were calculated using DAS 2.0 via non-compartmental analysis.

[5] = Plasma pharmacokinetics (non-compartmental); conditions: SD rats
Experimental: as §5

[6] = CTX-DTPA 6 μmol/kg iv, plasma, CTX metabolite derived from CTX-DTPA

## COC1C(=O)C2(C)C(OC)CC3OCC3(OC(C)=O)C2C(OC(=O)c2ccccc2)C2(O)CC(OC(=O)C(OC(=O)CN(CCN(CCN(CCN(CC(=O)O)CC(=O)O)CC(=O)O)CC(=O)O)CC(=O)O)C(NC(=O)OC(C)(C)C)c3ccccc3)C(C)=C1C2(C)C (stereo not shown) [CTX-TTHA]
DU145
  IC50: 4.1 ± 2.2 nM
A549
  IC50: 3.3 ± 1.6 nM
3T3
  IC50: 8 ± 3.3 nM
H520
  IC50: 2.1 ± 0.6 nM
SK-OV-3
  IC50: 3.2 ± 0.8 nM
[1]
  logP at 24 h: -1.37 ± 0.38
H358
  IC50: 1.6 ± 0.4 nM
Bel-7402
  IC50: 2.4 ± 0.4 nM
HCT 116
  IC50: 2.1 ± 0.9 nM
H460
  IC50: 1.9 ± 0.7 nM
L-02
  IC50: 6.8 ± 0.4 nM
[2]
  WBC counts: 3.50-5.60 ×10^9/L
MCF-7
  IC50: 5.5 ± 2.3 nM
[3]
  final tumor volume: 270 ± 28 mm³
Hemolysis test; 300 nmol/mL (maximum tested), read-out: hemolysis rate
  hemolysis at 1.5 h, 300 nmol/mL: 28.3 ± 13.9%
Hemolysis test; concentrations up to 150 nmol/mL
  hemolysis at 1.5 h: < 2%
[4]
  improvement in hemocompatibility over unmodified CTX: 64 fold
DU145 cells; DU145, 1 nM
  cells arrested in G2/M: 15.1 ± 0.1%
DU145 cells; DU145, 25 nM
  cells arrested in G2/M: 69.9 ± 12.6%
PC-3
  IC50: 7.4 ± 2.8 nM
LN229
  IC50: 7.6 ± 3.1 nM
Fadu
  IC50: 2.3 ± 0.9 nM
MCF-7 xenografts
  tumor volume at study endpoint: 190 ± 22 mm³
HT-29
  IC50: 8.4 ± 3.8 nM

## CO[C@H]1C(=O)[C@]2(C)[C@@H](OC)C[C@H]3OC[C@@]3(OC(C)=O)[C@H]2[C@H](OC(=O)c2ccccc2)[C@]2(O)C[C@H](OC(=O)[C@H](O)[C@@H](NC(=O)OC(C)(C)C)c3ccccc3)C(C)=C1C2(C)C [CTX/CTX-DTPA]
Tissue distribution; heart, 15 min
  tissue concentration: * 2.38 ± 0.46 μg/kg
Tissue distribution; heart, 2 h
  tissue concentration: *** 2.27 ± 0.70 μg/kg
Tissue distribution; heart, 4 h
  tissue concentration: *** 1.26 ± 0.20 μg/kg
Tissue distribution; heart, 12 h
  tissue concentration: ** 0.41 ± 0.29 μg/kg
Tissue distribution; kidney, 15 min
  tissue concentration: **** 53.38 ± 7.21 μg/kg
Tissue distribution; kidney, 2 h
  tissue concentration: ** 63.87 ± 43.92 μg/kg
Tissue distribution; kidney, 4 h
  tissue concentration: *** 8.74 ± 0.10 μg/kg
Tissue distribution; kidney, 12 h
  tissue concentration: **** 3.14 ± 1.66 μg/kg
Tissue distribution; liver, 15 min
  tissue concentration: *** 17.88 ± 1.12 μg/kg
Tissue distribution; liver, 2 h
  tissue concentration: ** 10.31 ± 7.28 μg/kg
Tissue distribution; liver, 4 h
  tissue concentration: ** 4.62 ± 3.48 μg/kg
Tissue distribution; liver, 12 h
  tissue concentration: * 1.91 ± 1.12 μg/kg
Tissue distribution; lung, 15 min
  tissue concentration: *** 12.95 ± 5.49 μg/kg
Tissue distribution; lung, 2 h
  tissue concentration: **** 9.66 ± 5.84 μg/kg
Tissue distribution; lung, 4 h
  tissue concentration: **** 2.44 ± 0.01 μg/kg
Tissue distribution; lung, 12 h
  tissue concentration: * 1.78 ± 0.82 μg/kg
Tissue distribution; spleen, 15 min
  tissue concentration: ** 5.49 ± 0.53 μg/kg
Tissue distribution; spleen, 2 h
  tissue concentration: **** 8.23 ± 4.20 μg/kg
Tissue distribution; spleen, 4 h
  tissue concentration: ** 2.61 ± 0.42 μg/kg
Tissue distribution; spleen, 12 h
  tissue concentration: ** 1.43 ± 0.96 μg/kg
Tissue distribution; thymus, 15 min
  tissue concentration: ** 1.49 ± 0.02 μg/kg
Tissue distribution; thymus, 2 h
  tissue concentration: * 4.37 ± 5.02 μg/kg
Tissue distribution; thymus, 4 h
  tissue concentration: * 0.79 ± 0.28 μg/kg
Tissue distribution; thymus, 12 h
  tissue concentration: **** 0.80 ± 0.42 μg/kg
[5]; 6 μmol/kg iv, CTX metabolite from CTX-DTPA vs CTX group, greater
  Cmax relative to CTX: 2.2 fold
[5]; [6]
  AUC(0-t): **** 5157.71 ± 1650.87 μg/L*h
  CL: 25.2 ± 6.83 mL/min/kg
  Cmax: * 6311.67 ± 1217.79 μg/L
  MRT0-t: 0.72 ± 0.02 H
  Vd: * 6.04 ± 1.63 L/kg
  t1/2: **** 2.77 ± 0.00 H
